# Structures can show the parent of a compound that is named as a salt.
# Biological target: sodium channel isoforms of interest stably expressed in Human Embryonic Kidney Cells (voltage-gated sodium channel, particularly NaV1.1) (Homo sapiens, UniProt P35498)
# Test: automated planar patch clamp assay of sodium channel gating (area under the sodium current trace)
# Type: cell-based
# Settings: HEK cells, voltage step from −120 mV to 0 mV, increasing concentrations
# Text: A typical assay described in Crestey, F. et al., ACS Chem Neurosci (2015), Vol. 6, pp. 1302-1308, AA43279 (Frederiksen, K. et al., Eur J Neurosci (2017), Vol. 46, pp. 1887-1896) and Lu AE98134 (von Schoubyea, N. L. et al., Neurosci Lett (2018), Vol. 662, pp. 29-35) employs the use of automated planar patch clamp techniques to study the effects of the chemical agent on the gating of sodium channels. The sodium channel isoforms of interest are stably expressed in Human Embryonic Kidney Cells and the currents that flow through those channels in response to a depolarizing voltage clamp step from −120 mV to 0 mV are measured in the presence of increasing concentrations of the chemical agents. The area under the sodium current trace which correlates to the magnitude of sodium flux through the cell membrane is used to quantify the effects on gating of the channels. Other parameters that are measured in the assay include the peak current, time constant of open state inactivation and the voltage dependence of steady state inactivation properties. The concentration responses are used to determine potency of each chemical agents effects on modulating the sodium channel isoform gating. Such techniques are known to those skilled in the art, and may be developed, using current technologies, into low or medium throughput assays for evaluating compounds for their ability to modulate sodium channel behaviour.
# As disclosed above, typical assays for testing compounds of the disclosure are known, for example as disclosed in Crestey, F. et al., ACS Chem Neurosci (2015), Vol. 6, pp. 1302-1308, AA43279 (Frederiksen, K. et al., Eur J Neurosci (2017), Vol. 46, pp. 1887-1896) and Lu AE98134 (von Schoubyea, N. L. et al., Neurosci Lett (2018), Vol. 662, pp. 29-35) which employs the use of automated planar patch clamp techniques to study the effects of the chemical agent on the gating of sodium channels. The sodium channel isoforms of interest are stably expressed in Human Embryonic Kidney Cells and the currents that flow through those channels in response to a depolarizing voltage clamp step from −120 mV to 0 mV are measured in the presence of increasing concentrations of the chemical agents. The area under the sodium current trace which correlates to the magnitude of sodium flux through the cell membrane is used to quantify the effects on gating of the channels. Other parameters that are measured in the assay include the peak current, time constant of open state inactivation and the voltage dependence of steady state inactivation properties. The concentration responses are used to determine potency of each chemical agents effects on modulating the sodium channel isoform gating.
Compound,EC50 [µM],Empirical Emax
"Fc1ccc(F)c(-c2ccnc(N3CC[C@H](F)C3)c2-c2nc3cnc(Cl)cc3[nH]2)c1 [Example 1, (S)-6-chloro-2-(4-(2,5-difluorophenyl)-2-(3-fluoropyrrolidin-1-yl)pyridin-3-yl)-1H-imidazo[4,5-c]pyridine]",< 1,++++ (++++ indicates a value greater than 7.5)
"Fc1ccccc1-c1ccnc(N2CCCC2)c1-c1nc2ncccc2[nH]1 [Example 2, 2-(4-(2-fluorophenyl)-2-(pyrrolidin-1-yl)pyridine-3-yl)-1H-imidazo[4,5-b]pyridine]",1 to 10,++++ (++++ indicates a value greater than 7.5)
"Fc1ccccc1-c1ccnc(N2CCCC2)c1-c1nc2ccccc2[nH]1 [Example 3, 2-(4-(2-fluorophenyl)-2-(pyrrolidin-1-yl)pyridin-3-yl)-1H-benzo[d]imidazole]",1 to 10,++++ (++++ indicates a value greater than 7.5)
"Nc1nnc(-c2c(-c3ccccc3F)ccnc2N2CCCC2)o1 [Example 4, 5-(4-(2-fluorophenyl)-2-(pyrrolidin-1-yl)pyridin-3-yl)-1,3,4-oxadiazol-2-amine]",≥ 50,+++ (+++ indicates a value from 5.0 up to 7.5 μM)
"CC(C)CC1CN=C(c2c(-c3ccccc3F)ccnc2N2CCCC2)N1 (stereo not drawn) [Example 5, 4-(2-fluorophenyl)-3-(5-isobutyl-4,5-dihydro-1H-imidazol-2-yl)-2-(pyrrolidin-1-yl)pyridine]",1 to 10,+ (+ indicates a value less than 2.0 μM)
"Clc1ccccc1-c1ccnc(N2CCCC2)c1-c1nc2ccccc2[nH]1 [Example 6, 2-(4-(2-chlorophenyl)-2-(pyrrolidin-1-yl)pyridin-3-yl)-1H-benzo[d]imidazole]",1 to 10,++ (++ indicates a value from 2.0 up to 5.0 μM)
"Cc1ccccc1-c1ccnc(N2CCCC2)c1-c1nc2ccccc2[nH]1 [Example 7, 2-(2-(pyrrolidin-1-yl)-4-(o-tolyl)pyridin-3-yl)-1H-benzo[d]imidazole]",1 to 10,++ (++ indicates a value from 2.0 up to 5.0 μM)
"Cc1ccccc1-c1ccnc(N2CCOCC2)c1-c1nc2ccccc2[nH]1 [Example 8, 4-(3-(1H-benzo[d]imidazol-2-yl)-4-(o-tolyl)pyridin-2-yl)morpholine]",10 to 50,+++ (+++ indicates a value from 5.0 up to 7.5 μM)
"Fc1ccccc1-c1ccnc(N2CC[C@H](F)C2)c1-c1nnco1 [Example 9, (S)-2-(4-(2-fluorophenyl)-2-(3-fluoropyrrolidin-1-yl)pyridin-3-yl)-1,3,4-oxadiazole]",≥ 50,++ (++ indicates a value from 2.0 up to 5.0 μM)
"c1ccc(-c2ccnc(N3CCCC3)c2-c2nc3ccccc3[nH]2)nc1 [Example 10, 2-(2′-(pyrrolidin-1-yl)-[2,4′-bipyridin]-3′-yl)-1H-benzo[d]imidazole]",10 to 50,++ (++ indicates a value from 2.0 up to 5.0 μM)
"Fc1ccccc1-c1ccnc(N2CCCC2)c1-c1nc2ccncc2[nH]1 [Example 11, 2-(4-(2-fluorophenyl)-2-(pyrrolidin-1-yl)pyridin-3-yl)-3H-imidazo[4,5-c]pyridine Formic Acid Salt]",1 to 10,++++ (++++ indicates a value greater than 7.5)
"CCCCNc1nnc(-c2c(-c3ccccc3F)ccnc2N2CC[C@H](F)C2)o1 [Example 12, (S)—N-butyl-5-(4-(2-fluorophenyl)-2-(3-fluoropyrrolidin-1-yl)pyridin-3-yl)-1,3,4-oxadiazol-2-amine]",10 to 50,++ (++ indicates a value from 2.0 up to 5.0 μM)
"CC(C)CCc1nnc(-c2c(-c3ccccc3O)ccnc2N2CC[C@H](F)C2)o1 [Example 13, (S)-2-(2-(3-fluoropyrrolidin-1-yl)-3-(5-isopentyl-1,3,4-oxadiazol-2-yl)pyridin-4-yl)phenol]",≥ 50,+ (+ indicates a value less than 2.0 μM)
"F[C@H]1CCN(c2nccc(C3=CCCC3)c2-c2nc3ccccc3[nH]2)C1 [Example 14, (S)-2-(4-(cyclopent-1-en-1-yl)-2-(3-fluoropyrrolidin-1-yl)pyridin-3-yl)-1H-benzo[d]imidazole]",1 to 10,++ (++ indicates a value from 2.0 up to 5.0 μM)
"Fc1cccnc1-c1ccnc(N2CCCC2)c1-c1nc2ccccc2[nH]1 [Example 15, 2-(3-fluoro-2′-(pyrrolidin-1-yl)-[2,4′-bipyridin]-3′-yl)-1H-benzo[d]imidazole]",10 to 50,++++ (++++ indicates a value greater than 7.5)
"c1ccc(-c2ccnc(N3CCCC3)c2-c2nc3ccccc3[nH]2)cc1 [Example 16, 2-(4-phenyl-2-(pyrrolidin-1-yl)pyridin-3-yl)-1H-benzo[d]imidazole]",1 to 10,+++ (+++ indicates a value from 5.0 up to 7.5 μM)
"F[C@H]1CCN(c2nccc(-c3ccccc3)c2-c2nc3ccccc3[nH]2)C1 [Example 17, (S)-2-(2-(3-fluoropyrrolidin-1-yl)-4-phenylpyridin-3-yl)-1H-benzo[d]imidazole]",1 to 10,++++ (++++ indicates a value greater than 7.5)
"Fc1ccccc1-c1ccnc(N2CC[C@H](F)C2)c1-c1nc2ccccc2[nH]1 [Example 18, (S)-2-(4-(2-fluorophenyl)-2-(3-fluoropyrrolidin-1-yl)pyridin-3-yl)-1H-benzo[d]imidazole]",1 to 10,++++ (++++ indicates a value greater than 7.5)
"F[C@H]1CCN(c2nccc(-c3ccccc3)c2-c2cc(-c3cccnc3)[nH]n2)C1 [Example 19, (S)-2-(3-fluoropyrrolidin-1-yl)-4-phenyl-3-(5-(pyridin-3-yl)-1H-pyrazol-3-yl)pyridine]",10 to 50,++ (++ indicates a value from 2.0 up to 5.0 μM)
"CC(C)c1ccc(-c2cc(-c3c(-c4ccccc4)ccnc3N3CC[C@H](F)C3)n[nH]2)cc1 [Example 20, (S)-2-(3-fluoropyrrolidin-1-yl)-3-(5-(4-isopropylphenyl)-1H-pyrazol-3-yl)-4-phenylpyridine]",10 to 50,++ (++ indicates a value from 2.0 up to 5.0 μM)
"Fc1cc(F)cc(-c2ccnc(N3CCCC3)c2-c2nc3ccccc3[nH]2)c1 [Example 23, 2-(4-(3,5-difluorophenyl)-2-(pyrrolidin-1-yl)pyridin-3-yl)-1H-benzo[d]imidazole]",1 to 10,++ (++ indicates a value from 2.0 up to 5.0 μM)
"F[C@H]1CCN(c2nccc(-c3ccccc3)c2C2=N[C@@H]3CCCC[C@H]3N2)C1 [Example 24, (3aR,7aR)-2-(2-((S)-3-fluoropyrrolidin-1-yl)-4-phenylpyridin-3-yl)-3a,4,5,6,7,7a-hexahydro-1H-benzo[d]imidazole]",1 to 10,+ (+ indicates a value less than 2.0 μM)
"c1ccc(-c2ccnc(N3CCOCC3)c2C2=N[C@@H]3CCCC[C@H]3N2)cc1 [Example 25, 4-(3-((3aR,7aR)-3a,4,5,6,7,7a-hexahydro-1H-benzo[d]imidazol-2-yl)-4-phenylpyridin-2-yl)morpholine]",1 to 10,+ (+ indicates a value less than 2.0 μM)
"CC1CN=C(c2c(-c3ccccc3)ccnc2N2CC[C@H](F)C2)N1 (stereo partly drawn) [Example 26, 2-((S)-3-fluoropyrrolidin-1-yl)-3-(5-methyl-4,5-dihydro-1H-imidazol-2-yl)-4-phenylpyridine]",1 to 10,+ (+ indicates a value less than 2.0 μM)
"Cc1[nH]c(-c2c(-c3ccccc3)ccnc2N2CC[C@H](F)C2)nc1Br [Example 27, (S)-3-(4-bromo-5-methyl-1H-imidazol-2-yl)-2-(3-fluoropyrrolidin-1-yl)-4-phenylpyridine]",1 to 10,++ (++ indicates a value from 2.0 up to 5.0 μM)
"c1ccc(-c2cnnc(N3CCCC3)c2-c2nc3ccccc3[nH]2)cc1 [Example 28, 2-(5-phenyl-3-(pyrrolidin-1-yl)pyridazin-4-yl)-1H-benzo[d]imidazole]",10 to 50,++ (++ indicates a value from 2.0 up to 5.0 μM)
"F[C@H]1CCN(c2nccc(-c3ccccc3)c2-c2nc3c([nH]2)CCCC3)C1 [Example 29, (S)-2-(2-(3-fluoropyrrolidin-1-yl)-4-phenylpyridin-3-yl)-4,5,6,7-tetrahydro-1H-benzo[d]imidazole]",< 1,++ (++ indicates a value from 2.0 up to 5.0 μM)

# From patent US12054486B2, “Pyridine derivatives and their use as sodium channel activators” (Xenon Pharmaceuticals Inc., priority 2021, dated 2024)
